Source: patent US9695155B2, “Herbicidal substituted pyrimidinyloxy benzene compounds” (E. I. DU PONT DE NEMOURS AND COMPANY, priority 2013, dated 2017)

Columns and labels:
giant foxtail [1] = test: Test A postemergence; assay type: in vivo, Setaria faberii
In short: (§1)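 Compounds in non-phytotoxic solvent with surfactant applied as soil spray preemergence, or postemergence to plants 2-10 cm at one- to two-leaf stage, in loam/sand. After approximately 10 days in greenhouse, injury rated visually versus untreated controls, 0 (no effect) to 100 (complete control).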

corn [2] = test: Test A postemergence; assay type: in vivo, Zea mays
In short: as §1

blackgrass = test: Test C postemergence; assay type: in vivo, Alopecurus myosuroides
In short: (§2)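 Whole-plant greenhouse test with surfactant-containing solvent formulation, applied preemergence to sown loam–sand pots or postemergence to 2–18 cm plants. Scored by eye 13 to 15 days on, 0–100 scale.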

wheat, winter = test: Test C postemergence; assay type: in vivo, Triticum aestivum; settings: for Plant response rating, Wheat: scale 0 to 100 (0 no effect, 100 complete control)
In short: as §2

corn [3] = test: Test C postemergence; assay type: in vivo, Zea mays
In short: as §2

giant foxtail [4] = test: Test C postemergence; assay type: in vivo, Setaria faberii
In short: as §2

yellow nutsedge = test: Test C postemergence; assay type: in vivo, Cyperus esculentus; settings: for Plant response rating, Nutsedge, Yellow: scale 0 to 100 (0 no effect, 100 complete control)
Source text: Seeds of plant species selected from blackgrass (Alopecurus myosuroides), Italian ryegrass (Lolium multiflorum), wheat, winter (winter wheat, Triticum aestivum), galium (catchweed bedstraw, Galium aparine), corn (Zea mays), large (Lg) crabgrass (Digitaria sanguinalis), giant foxtail (Setaria faberii), johnsongrass (Sorghum halepense), lambsquarters (Chenopodium album), morningglory (Ipomoea coccinea), yellow nutsedge (Cyperus esculentus), pigweed (Amaranthus retroflexus), ragweed (common ragweed, Ambrosia elatior), soybean (Glycine max), barnyardgrass (Echinochloa crus-galli), oilseed rape (Brassica napus), waterhemp (common waterhemp, Amaranthus rudis), kochia (Kochia scoparia), wild oat (Avena fatua), surinam grass (Brachiaria decumbens), foxtail, green (green foxtail, Setaria viridis), goosegrass (Eleusine indica), bromegrass, downy (downy bromegrass, Bromus tectorum), nightshade (eastern black nightshade, Solanum ptycanthum), cocklebur (common cocklebur, Xanthium strumarium), cupgrass, woolly (woolly cupgrass, Eriochloa villosa), bermudagrass (Cynodon dactylon), sunflower, (common oilseed sunflower, Helianthus annuus), Russian thistle (Salsola kali), and velvetleaf (Abutilon theophrasti) were planted into a blend of loam soil and sand and treated preemergence with test chemicals formulated in a non-phytotoxic solvent mixture which included a surfactant.
At the same time, plants selected from these crop and weed species and also barley, winter (winter barley, Hordeum vulgare), windgrass (Apera spica-venti), chickweed (common chickweed, Stellaria media), deadnettle (henbit deadnettle, Lamium amplexicaule), and canarygrass (littleseed canarygrass, Phalaris minor) were planted in pots containing Redi-Earth® planting medium (Scotts Company, 14111 Scottslawn Road, Marysville, Ohio 43041) comprising spaghnum peat moss, vermiculite, wetting agent and starter nutrients and treated with postemergence applications of test chemicals formulated in the same manner. Plants ranged in height from 2 to 18 cm (1- to 4-leaf stage) for postemergence treatments. Treated plants and controls were maintained in a greenhouse for 13 to 15 days, after which time all species were compared to controls and visually evaluated. Plant response ratings, summarized in Table C, are based on a scale of 0 to 100 where 0 is no effect and 100 is complete control. A dash (-) response means no test result.

barnyardgrass = test: Test C postemergence; assay type: in vivo, Echinochloa crus-galli
In short: as §2

kochia = test: Test C postemergence; assay type: in vivo, Kochia scoparia
In short: as §2

[5] = 125 g ai/ha, 0 to 100 scale where 0 is no effect and 100 is complete control
[6] = 500 g ai/ha, 0 to 100 scale, 0 no effect, 100 complete control
[7] = Postemergence, 31 g ai/ha, scale 0 to 100 (0 no effect, 100 complete control), 13 to 15 days
[8] = Postemergence, 62 g ai/ha, scale 0 to 100 (0 no effect, 100 complete control)
[9] = Postemergence, 31 g ai/ha, 13 to 15 days
[10] = 1000 g ai/ha, 0 to 100 scale, 0 no effect, 100 complete control
[11] = 16 g ai/ha, postemergence, visual rating, scale 0 to 100 (0 no effect, 100 complete control), 13 to 15 days
[12] = 4 g ai/ha, postemergence, 0 is no effect, 100 is complete control
[13] = 8 g ai/ha, postemergence, 0 is no effect, 100 is complete control
[14] = 16 g ai/ha, postemergence, 0 is no effect, 100 is complete control
[15] = 31 g ai/ha, 0 to 100 scale, 0 no effect, 100 complete control
[16] = 125 g ai/ha, postemergence, visual rating, scale 0 to 100 (0 no effect, 100 complete control)
[17] = 125 g ai/ha, postemergence, visual rating

SMILES	Plant response rating, Foxtail, Giant (giant foxtail [1]; [5])	Plant response rating, Corn (corn [2]; [5])	Plant response rating (0 to 100), Blackgrass (blackgrass; 125 g ai/ha, postemergence)	Plant response rating, Blackgrass (blackgrass; [7])	Plant response rating, Blackgrass (blackgrass; [8])	Plant response rating (0 to 100), Wheat (wheat, winter; 125 g ai/ha, postemergence)	Plant response rating, Wheat (wheat, winter; [9])	Plant response rating, Wheat (wheat, winter; Postemergence, 62 g ai/ha)	Plant response rating (0 to 100), Corn (corn [3]; 125 g ai/ha, postemergence)	Plant response rating, Corn (corn [3]; [7])	Plant response rating, Corn (corn [3]; [8])	Plant response rating (0 to 100), Foxtail, Giant (giant foxtail [4]; 125 g ai/ha, postemergence)	Plant response rating, Foxtail, Giant (giant foxtail [4]; [7])	Plant response rating, Foxtail, Giant (giant foxtail [4]; [8])	Plant response rating (0 to 100), Nutsedge, Yellow (yellow nutsedge; 125 g ai/ha, postemergence)	Plant response rating, Nutsedge, Yellow (yellow nutsedge; [9])	Plant response rating, Nutsedge, Yellow (yellow nutsedge; Postemergence, 62 g ai/ha)	Plant response rating, Barnyardgrass (barnyardgrass; [7])	Plant response rating, Barnyardgrass (barnyardgrass; [8])	Plant response rating, Kochia (kochia; [8])	further results
N#Cc1cccc(Oc2ncc(F)cn2)c1-n1cc(Br)cn1 [Compound 62]	90	70	30	0	5	5	0	0	15	5	15	20	5	10	5	0	5	0	5	90	Plant response rating, Foxtail, Giant (giant foxtail [1]; [6]): 100; Plant response rating, Corn (corn [2]; [6]): 90; Plant response rating (0 to 100), Blackgrass (blackgrass; 250 g ai/ha, postemergence): 50; Plant response rating (0 to 100), Wheat (wheat, winter; 250 g ai/ha, postemergence): 20; Plant response rating (0 to 100), Corn (corn [3]; 250 g ai/ha, postemergence): 20; Plant response rating (0 to 100), Foxtail, Giant (giant foxtail [4]; 250 g ai/ha, postemergence): 25; Plant response rating (0 to 100), Nutsedge, Yellow (yellow nutsedge; 250 g ai/ha, postemergence): 15; Plant response rating (0 to 100), Barnyardgrass (barnyardgrass; 125 g ai/ha, postemergence): 5; Plant response rating (0 to 100), Barnyardgrass (barnyardgrass; 250 g ai/ha, postemergence): 10; Plant response rating (0 to 100), Kochia (kochia; 125 g ai/ha, postemergence): 90; Plant response rating (0 to 100), Kochia (kochia; 250 g ai/ha, postemergence): 95; Plant response rating, Kochia (kochia; [7]): 80
Clc1cnc(Oc2cccc(Br)c2-n2cc(Br)cn2)nc1 [Compound 65]	–	–	15	10	40	10	0	5	10	10	10	10	10	10	15	5	5	5	5	98	Plant response rating, Foxtail, Giant (giant foxtail [1]; [10]): 100; Plant response rating, Corn (corn [2]; [10]): 70; Blackgrass plant response rating (blackgrass; [11]): 0; Corn plant response rating (corn [3]; [11]): 5; Foxtail, Giant plant response rating (giant foxtail [4]; [11]): 5; Barnyardgrass plant response rating (barnyardgrass; [11]): 5; Plant response rating (0 to 100), Barnyardgrass (barnyardgrass; 125 g ai/ha, postemergence): 10; Kochia plant response rating (kochia; [11]): 90; Plant response rating (0 to 100), Kochia (kochia; 125 g ai/ha, postemergence): 98; Plant response rating, Kochia (kochia; [7]): 90
N#Cc1cccc(Oc2ncc(Cl)cn2)c1-n1cnc(Br)c1 [Compound 74]	80	30	0	0	0	0	0	0	15	10	10	10	5	5	0	0	0	0	5	90	Plant response rating, Foxtail, Giant (giant foxtail [1]; 500 g ai/ha, 0 to 100 scale where 0 is no effect and 100 is complete control): 90; Plant response rating, Corn (corn [2]; [6]): 70; Plant response rating (0 to 100), Blackgrass (blackgrass; 250 g ai/ha, postemergence): 5; Plant response rating (0 to 100), Wheat (wheat, winter; 250 g ai/ha, postemergence): 5; Plant response rating (0 to 100), Corn (corn [3]; 250 g ai/ha, postemergence): 20; Plant response rating (0 to 100), Foxtail, Giant (giant foxtail [4]; 250 g ai/ha, postemergence): 20; Plant response rating (0 to 100), Nutsedge, Yellow (yellow nutsedge; 250 g ai/ha, postemergence): 0; Plant response rating (0 to 100), Barnyardgrass (barnyardgrass; 125 g ai/ha, postemergence): 5; Plant response rating (0 to 100), Barnyardgrass (barnyardgrass; 250 g ai/ha, postemergence): 15; Plant response rating (0 to 100), Kochia (kochia; 125 g ai/ha, postemergence): 90; Plant response rating (0 to 100), Kochia (kochia; 250 g ai/ha, postemergence): 90; Plant response rating, Kochia (kochia; [7]): 80
CC(=NO)c1cn(-c2c(Br)cccc2Oc2ncc(Cl)cn2)nn1 [Compound 115]	–	–	–	5	–	–	–	–	–	–	–	–	–	–	–	–	–	5	–	–	Plant response rating, Foxtail, Giant (giant foxtail [1]; [10]): 90; Plant response rating, Corn (corn [2]; [10]): 90; Plant response rating (0 to 100), Blackgrass (blackgrass; [12]): 0; Plant response rating (0 to 100), Blackgrass (blackgrass; [13]): 0; Plant response rating (0 to 100), Blackgrass (blackgrass; [14]): 0; Plant response rating (0 to 100), Wheat (wheat, winter; [13]): 0; Plant response rating (0 to 100), Wheat (wheat, winter; [14]): 0; Plant response rating (0 to 100), Corn (corn [3]; [12]): 5; Plant response rating (0 to 100), Corn (corn [3]; [13]): 10; Plant response rating (0 to 100), Corn (corn [3]; [14]): 5; Plant response rating (0 to 100), Foxtail, Giant (giant foxtail [4]; [13]): 5; Plant response rating (0 to 100), Foxtail, Giant (giant foxtail [4]; [14]): 5; Plant response rating (0 to 100), Nutsedge, Yellow (yellow nutsedge; [13]): 0; Plant response rating (0 to 100), Nutsedge, Yellow (yellow nutsedge; [14]): 0; Plant response rating (0 to 100), Barnyardgrass (barnyardgrass; [12]): 0; Plant response rating (0 to 100), Barnyardgrass (barnyardgrass; [13]): 0; Plant response rating (0 to 100), Barnyardgrass (barnyardgrass; [14]): 0; Plant response rating (0 to 100), Kochia (kochia; [13]): 0; Plant response rating (0 to 100), Kochia (kochia; [14]): 0
FCc1cccc(Oc2ncc(Br)cn2)c1-n1cc(C(F)(F)F)cn1 [Compound 120]	70	50	–	5	5	–	–	0	–	–	5	–	–	10	–	–	10	5	10	95	Plant response rating, Foxtail, Giant (giant foxtail [1]; [15]): 20; Plant response rating, Corn (corn [2]; [15]): 10; Plant response rating (0 to 100), Blackgrass (blackgrass; [14]): 0; Plant response rating, Blackgrass (blackgrass; [16]): 30; Plant response rating (0 to 100), Wheat (wheat, winter; [14]): 0; Plant response rating, Wheat (wheat, winter; [17]): 0; Plant response rating (0 to 100), Corn (corn [3]; [14]): 5; Plant response rating, Corn (corn [3]; [16]): 10; Plant response rating (0 to 100), Foxtail, Giant (giant foxtail [4]; [14]): 5; Plant response rating, Foxtail, Giant (giant foxtail [4]; [16]): 35; Plant response rating (0 to 100), Nutsedge, Yellow (yellow nutsedge; [14]): 0; Plant response rating, Nutsedge, Yellow (yellow nutsedge; [17]): 25; Plant response rating (0 to 100), Barnyardgrass (barnyardgrass; [14]): 5; Plant response rating, Barnyardgrass (barnyardgrass; [16]): 10; Plant response rating (0 to 100), Kochia (kochia; [14]): 75; Plant response rating, Kochia (kochia; [16]): 100
